US9546167B2, “Radiosynthesis of tau radiopharmaceuticals” (The General Hospital Corporation, priority 2013, dated 2017)

Columns and labels:
[1] = stability of formulated product by HPLC and radio-TLC, clarity and pH; assay type: physicochemical; settings: over a period of 6 hours
Description: (§1) Three consecutive productions of [^18F]T807 were carried out to validate this radiopharmaceutical for human use. […] Due to the increased lipophilicity of 1b, an additional HPLC analysis was performed using an X-Select HSS T3 column (4.6×150 mm, 3.5 μm) and eluted with 50% CH3OH/H2O (pH 2 adjusted with HCl) with a flow rate of 1.2 mL/min, monitored at λ=254 nm. Radio-TLC was performed to verify the radiochemical purity of [^18F]T807 using silica gel plates and 80:20 (v/v) CH2Cl2:CH3OH mobile phase. Radio-TLC confirmed high radiochemical purity (>97%). […] The half-life was verified to be 109.7 minutes, as determined by a dose calibrator, and no long lived isotopes were observed (5 days), as determined by analysis on a HPGE detector after ^18F-decay. Formulated [^18F]T807 was free of pyrogens (Charles River Endosafe® PTS), sterile, and passed the Kryptofix® spot test (<50 μg/mL). […] Using this new methodology, [^18F]T807 was successfully validated for human PET studies, meeting all FDA and USP requirements for a PET radiopharmaceutical.

[2] = tested on: paired helical filaments of tau (PHF-tau); settings: cited from earlier work
[3] = tested on: hyperphosphorylated tau fibrillar aggregates; settings: PET imaging, human subjects; cited from earlier work
[4] = lipophilicity of precursor (HPLC analysis remark); assay type: physicochemical; settings: qualitative
Description: as §1

[5] = solubility of precursor in reaction / organic solvents; assay type: physicochemical
Description: The uncorrected radiochemical yield (RCY) of [^18F]T807 was 14±3% (n=3) and the total synthesis time was 60 minutes, including formulation. The product was prepared consistently with >95% radiochemical purity and the specific activity at the end of synthesis was 216±60 GBq/μmol (5837±1621 mCi/μmol). […] Therefore, the precursor could be added remotely to the reaction vial with minimal volume and eliminated the possibility of the precursor precipitating out of solution before use. Moreover, the fluorination condition simultaneously removed the t-BOC protecting group so there was no need for an additional deprotection step. Secondly, without being bound by any theory, it is thought that the protecting group may also be responsible for the higher radiochemical yields by inhibiting side reactions with the —NH of the indole moiety.

Compound: [18F]c1ccc(-c2ccc3c(c2)[nH]c2ccncc23)cn1 [[^18F]T807]
- pH [1]: 5.5
- stability as measured by HPLC and radio-TLC [1]: maintained stability
- potency in vitro for paired helical filaments of tau (PHF-tau) [2]: excellent
- selectivity in vitro for PHF-tau over Aβ-plaques [2]: excellent

Compound: CC(=C(C#N)C#N)c1ccc2cc(N(C)CCF)ccc2c1 [[^18F]FDDNP]
- distinction between amyloid-β plaques and tau [3]: does not distinguish
- imaging of hyperphosphorylated tau fibrillar aggregates [3]: effective

Compound: [18F]CCC1CCN(c2ccn3c(n2)nc2ccccc23)CC1 [[^18F]T808, reference compound]
- potency in vitro for paired helical filaments of tau (PHF-tau) [2]: excellent
- selectivity in vitro for PHF-tau over Aβ-plaques [2]: excellent

Compound: CC(C)(C)OC(=O)n1c2ccncc2c2ccc(-c3ccc([N+](=O)[O-])nc3)cc21 [Compound 1b, tert-butyl 7-(6-nitropyridin-3-yl)-5H-pyrido[4,3-b]indole-5-carboxylate]
- lipophilicity [4]: increased
- solubility in the reaction solvent (DMSO) ([5]; compared with 1a): increased

Compound: O=[N+]([O-])c1ccc(-c2ccc3c(c2)[nH]c2ccncc23)cn1 [Compound 1a, 7-(6-nitropyridin-3-yl)-5H-pyrido[4,3-b]indole, reference compound]
- solubility in most organic solvents [5]: only sparingly soluble
